Earlier results in patent US11583508B2, “Use of mitoxantrone liposome for treating non-Hodgkin's lymphoma” (CSPC ZHONGQI PHARMACEUTICAL TECHNOLOGY (SHIJIAZHUANG) CO., …, priority 2018, dated 2023).

Tested on: relapsed/refractory PTCL (RR-PTCL)
Details: monotherapy, second-line

O=C(/C=C/c1cccc(S(=O)(=O)Nc2ccccc2)c1)NO [Belinostat]
Primary endpoint: (ORR, %): 25.8%

C#CCC(Cc1cnc2nc(N)nc(N)c2n1)c1ccc(C(=O)N[C@@H](CCC(=O)O)C(=O)O)cc1 (some centres unmarked) [Pralatrexate]
Primary endpoint: (ORR, %): 27%
